Assay results taken from US10167296B2, “Sulfoximine substituted quinazolines for pharmaceutical compositions” (EVOTEC INTERNATIONAL GMBH, priority 2014, dated 2019).

What was measured:
[1] = system: MNK2 (MNK2a or MNK2b) or MNK1; details: cell culture cells transfected with MNK2 (MNK2a or MNK2b) or MNK1; cited from earlier work
[2] = molecular target: MNK1a (pre-activated GST-MNK1a) (Homo sapiens (Human), UniProt Q9BUB5); assay: MNK1 in vitro kinase assay (assay 2), Z'-LYTE; format: biochemical; details: for inhibition at 1 µM: compound concentration of 1 μM, read-out: Mnk1 % Inh
Excerpt: B. MNK1 In Vitro Kinase Assay (Assay 2)
MNK1 Data can be obtained from the MNK1 Z′-LYTE® assay. The MNK1 Z′-LYTE® screening protocol and assay conditions are also described on www.invitrogen.com.
The assay is described as follows:
The Z′-LYTE® biochemical assay employs a fluorescence-based, coupled-enzyme format and is based on the differential sensitivity of phosphorylated and non-phosphorylated peptides to proteolytic cleavage. The peptide substrate is labeled with two fluorophores—one at each end—that make up a FRET pair.
In the primary reaction, the kinase transfers the gamma-phosphate of ATP to a single tyrosine, serine or threonine residue in a synthetic FRET-peptide. In the secondary reaction, a site-specific protease recognizes and cleaves non-phosphorylated FRET-peptides. Phosphorylation of FRET-peptides suppresses cleavage by the Development Reagent. Cleavage disrupts FRET between the donor (i.e., coumarin) and acceptor (i.e., fluorescein) fluorophores on the FRET-peptide, whereas uncleaved, phosphorylated FRET-peptides maintain FRET. A ratiometric method, which calculates the ratio (the Emission Ratio) of donor emission to acceptor emission after excitation of the donor fluorophore at 400 nm, is used to quantitate reaction progress, as shown in the equation below. Emission Ratio=Coumarin Emission(445 nm)/Fluorescein Emission(520 nm)
The inhibition of kinase activity of MNK1a was assessed using pre-activated GST-MNK1a. The 2×MKNK1 (MNK1) mixture is prepared in 50 mM HEPES pH 7.5, 0.01% BRIJ-35, 10 mM MgCl2, 4 mM MnCl2, 1 mM EGTA, 2 mM DTT. The final 10 μL Kinase Reaction consists of 13.5-54 ng MKNK1 (MNK1) and 2 μM Ser/Thr 07 in 50 mM HEPES pH 7.5, 0.01% BRIJ-35, 10 mM MgCl2, 2 mM MnCl2, 1 mM EGTA, 1 mM DTT. After the 1 hour Kinase Reaction incubation, 5 μL of a 1:32768 dilution of Development Reagent A is added.
The Test Compounds are screened in 1% DMSO (final) in the well.
All Peptide/Kinase Mixtures are diluted to a 2×working concentration in the MNK1 Kinase Buffer.
All ATP Solutions are diluted to a 4×working concentration in Kinase Buffer (50 mM HEPES pH 7.5, 0.01% BRIJ-35, 10 mM MgCl2, 1 mM EGTA).
Development Reagent Solution:
The Development Reagent is diluted in Development Buffer
Bar-coded Corning, low volume NBS, 384-well plate (Corning Cat. #3676)
1. 2.5 μL—4×Test Compound
2. 5 μL—2×Peptide/Kinase Mixture
5. 60-minute Kinase Reaction incubation at room temperature
6. 5 μL—Development Reagent Solution
8. 60-minute Development Reaction incubation at room temperature
9. Read on fluorescence plate reader and analyze the data
The following equations are used for each set of data points:
Correction for Background Fluorescence: FISample−FITCFI Ctl Emission Ratio (using values corrected for background fluorescence):Coumarin Emission (445 nm)/Fluorescein Emission (520 nm)
% Phosphorylation (% Phos): 1−((Emission Ratio×F100%)−C100%)/((C0%−C100%)+[Emission Ratio×(F100%−F0%)])*100
% Inhibition: 1−(% PhosSample/% Phos0% Inhibition Ctl)*100 FI=Fluorescence Intensity C100%=Average Coumarin emission signal of the 100% Phos. Control C0%=Average Coumarin emission signal of the 0% Phos. Control F100%=Average Fluorescein emission signal of the 100% Phos. Control F0%=Average Fluorescein emission signal of the 0% Phos. Control
SelectScreen® Kinase Profiling Service uses XLfit from IDBS. The dose response curve is curve fit to model number 205 (sigmoidal dose-response model).

[3] = molecular target: MNK2a (pre-activated GST-MNK2a) (Homo sapiens (Human), UniProt Q9HBH9); assay: MNK2a in vitro kinase assay (assay 1), ADP-Glo; format: biochemical; details: read-out: Mnk2 IC50
Experimental: A. MNK2a In Vitro Kinase Assay (Assay 1)
The inhibition of kinase activity of MNK2a was assessed using pre-activated GST-MNK2a. The white, 384-well OptiPlate F plates were purchased from PerkinElmer. The ADP-Glo Kinase Assay (including ultra pure ATP) was purchased from Promega (V9103). Activated MNK2a was obtained as described in WO2011/104340. […] ID No. 5 of WO 2011/104340 by the C-terminal —CONH2 group, was purchased from Thermo Fisher Scientific. All other materials were of highest grade commercially available. Compounds are tested in either serial dilutions or single dose concentrations. The compound stock solutions are 10 mM in 100% DMSO The serial compound dilutions are prepared in 100% DMSO followed by 1:27.3 intermediate dilution in assay buffer. The final DMSO concentration in assay will be <3%.
In the 384-well plates 3 μl of test compound from the intermediate dilution is mixed with 4 μl of the activated MNK2 enzyme (final concentration of 10 nM) and 4 μl of the peptide (final concentration of 25 μM)/ultra pure ATP (final concentration of 20 μM), all dissolved in assay buffer. This step is followed by an incubation time of 90 min, then 10 μl of ADP Glo reagent are added, followed by 40 min of incubation. Then 20 μl of kinase detection reagent are admixed. The plates are sealed and after an incubation period of 30 min, the luminescence signal is measured in an Envision reader to determine the amount of produced ADP. All incubation steps are performed at room temperature.
The assay buffer consists of 20 mM HEPES, 2 mM DTT, 0.01% BSA, 20 mM MgCl2 and 0.1% Pluronic F-127.
The luminescent signal generated is proportional to the ADP concentration produced and is correlated with activated MNK2 activity. The analysis of the data is performed by the calculation of the percentage of ATP consumption of activated MNK2 in the presence of the test compound compared to the consumption of ATP in the presence of activated MNK2 without compound. (RLU(sample)−RLU(low control))*100/(RLU(high value)−RLU(low control))
[RLU=Relative Luminescence Units]
Values of more than 100% CTL are normally related to compound/sample specific physico-chemical properties (e.g. solubility, light absorbance, fluorescence).
IC50 values based on dose response curves are calculated with the AssayExplorer software.

Sequence of MNK1a (pre-activated GST-MNK1a) (Q9BUB5 other isoform, or with tags, fused parts or gaps): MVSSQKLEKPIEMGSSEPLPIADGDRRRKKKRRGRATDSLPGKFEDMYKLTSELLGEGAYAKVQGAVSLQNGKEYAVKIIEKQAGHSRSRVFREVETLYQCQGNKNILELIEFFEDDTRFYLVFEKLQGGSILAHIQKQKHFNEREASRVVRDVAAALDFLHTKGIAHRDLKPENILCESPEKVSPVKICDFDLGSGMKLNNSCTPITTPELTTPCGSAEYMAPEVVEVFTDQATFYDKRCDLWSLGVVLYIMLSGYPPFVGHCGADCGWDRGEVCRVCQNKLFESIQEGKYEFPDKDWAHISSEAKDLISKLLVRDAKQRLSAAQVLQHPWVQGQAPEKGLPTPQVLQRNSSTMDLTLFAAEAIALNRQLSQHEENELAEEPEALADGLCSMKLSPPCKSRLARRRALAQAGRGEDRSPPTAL
Sequence of MNK2a (pre-activated GST-MNK2a) (Q9HBH9 whole entry): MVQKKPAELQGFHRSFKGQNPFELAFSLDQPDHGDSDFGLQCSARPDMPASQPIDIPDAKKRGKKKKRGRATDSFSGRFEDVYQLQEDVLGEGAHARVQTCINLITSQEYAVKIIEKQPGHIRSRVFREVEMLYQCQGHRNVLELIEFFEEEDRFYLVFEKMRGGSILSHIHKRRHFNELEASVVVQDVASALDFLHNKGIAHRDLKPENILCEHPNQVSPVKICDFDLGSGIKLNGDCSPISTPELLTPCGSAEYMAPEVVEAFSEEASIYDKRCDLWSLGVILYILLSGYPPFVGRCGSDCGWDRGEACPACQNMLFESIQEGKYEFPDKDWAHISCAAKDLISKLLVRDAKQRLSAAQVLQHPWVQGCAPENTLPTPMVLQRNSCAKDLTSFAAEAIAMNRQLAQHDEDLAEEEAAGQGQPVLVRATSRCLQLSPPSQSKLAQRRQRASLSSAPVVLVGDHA

SMILES	reduction of phosphorylated elF4E [1]	inhibition at 1 µM [2]	IC50 [3]	IC50 [2]
Nc1ncnc2n[nH]c(Nc3ccc(F)cc3)c12 [CGP57380]	strong reduction	–	–	–
Cc1c(O)c(N=S(C)(C)=O)cc2ncnc(Nc3ccc(F)cc3O[C@H](C)C(F)(F)F)c12 [Example 2.51]	–	77%	6.9 nM	–
COc1c(N=S2(=O)CCCC2)cc2ncnc(Nc3ccc(F)cc3O[C@H](C)C(=O)NCC(F)(F)F)c2c1C [Example 2.52]	–	100%	2.3 nM	–
COc1c(N=S2(=O)CCC2)cc2ncnc(Nc3ccc(F)cc3O[C@H](C)C(=O)N[C@@H](C)C(F)(F)F)c2c1C [Example 2.53]	–	105%	1.6 nM	–
COc1c(N=S2(=O)CCCC2)cc2ncnc(Nc3ccc(F)cc3O[C@H](C)C(F)(F)F)c2c1C [Example 2.54]	–	91%	1.6 nM	–
COc1c(N=S2(=O)CCCC2)cc2ncnc(Nc3ccc(F)cc3O[C@@H]3CO[C@H]4[C@@H]3OC[C@H]4OC)c2c1Cl [Example 2.55]	–	104%	1.6 nM	–
COc1c(N=S2(=O)CCCC2)cc2ncnc(Nc3ccc(Cl)cc3O[C@H](C)C(=O)NCC(F)(F)F)c2c1C [Example 2.56]	–	97%	2.7 nM	–
COc1c(N=S2(=O)CCC2)cc2ncnc(Nc3ccc(F)cc3O[C@H]3CCOC3)c2c1C [Example 2.57]	–	–	1.1 nM	22 nM
COc1c(N=S2(=O)CCC2)cc2ncnc(Nc3ccc(F)cc3O[C@H]3CC[C@H](O)CC3)c2c1C [Example 2.58]	–	–	2.4 nM	38 nM
COc1c(N=S2(=O)CCC2)cc2ncnc(Nc3ccc(F)cc3O[C@@H]3CO[C@@H]4CCO[C@@H]43)c2c1Cl [Example 2.59]	–	108%	1.4 nM	–
Cc1c(OCC2CC2)c(N=S(C)(C)=O)cc2ncnc(Nc3ccc(F)cc3O[C@H](C)C(F)(F)F)c12 [Example 3.01]	–	–	3.3 nM	180 nM
COCCOc1c(N=S(C)(C)=O)cc2ncnc(Nc3ccc(F)cc3O[C@H](C)C(F)(F)F)c2c1C [Example 3.02]	–	–	2.6 nM	113 nM
Cc1c(OC(C)C)c(N=S(C)(C)=O)cc2ncnc(Nc3ccc(F)cc3O[C@H](C)C(F)(F)F)c12 [Example 3.03]	–	–	6.5 nM	282 nM
Cc1c(OC2CCOC2)c(N=S(C)(C)=O)cc2ncnc(Nc3ccc(F)cc3O[C@H](C)C(F)(F)F)c12 (stereo partly drawn) [Example 3.04]	–	–	2.1 nM	118 nM
